Test results published in patent publication US20130344026A1, “Dimeric Smac Mimetics” (priority 2009, published 2013).

Test system: HCC461
Test: cell viability assay in HCC461, compound alone
Format: cell-based
Settings: HCC461, HCC461 cells, compound alone; read-out: IC50 (uM) in cell viability assay in HCC461

SMILES	IC50
CN[C@@H](C)C(=O)N[C@H](C(=O)N1C[C@@H](NC(=O)[C@H](O)[C@@H](O)C(=O)N[C@H]2C[C@@H](C(=O)NC3c4ccccc4-c4ccccc43)N(C(=O)[C@@H](NC(=O)[C@H](C)NC)C(C)(C)C)C2)C[C@H]1C(=O)NC1c2ccccc2-c2ccccc21)C(C)(C)C [Compound P3-15]	0.017 µM
CN[C@@H](C)C(=O)N[C@H](C(=O)N1C[C@@H](NC(=O)c2ccc3cc(C(=O)N[C@H]4C[C@@H](C(=O)N[C@@H]5CCCc6ccccc65)N(C(=O)[C@@H](NC(=O)[C@H](C)NC)C(C)(C)C)C4)ccc3c2)C[C@H]1C(=O)N[C@@H]1CCCc2ccccc21)C(C)(C)C [Compound P3-38]	0.007 µM
